Measurements as given in EP0385712B1, “A peptide for use in the manufacture of a composition for prevention or treatment of a condition susceptible to treatment with a platelet aggregation inhibition agent” (ASAHI KASEI KOGYO KABUSHIKI KAISHA, priority 1989, dated 1994).
Positions of bridges follow the written chain, without caps; N, C: chain ends. Residues, ends and D or L forms follow the SMILES beside them.

system: rat, Wister strain; assay: Acute toxicity in rat, intravenous; type: in vivo; settings: body weight 80 - 90 g, 80 µg/kg intravenously in the tail, solution in 0.1 M aqueous sodium acetate containing 0.1 % bovine serum albumin
Description: A solution of each of the following compounds in 0.1 M aqueous sodium acetate containing 0.1 % bovine serum albumin is administered into a rat, Wister strain, body weight 80 - 90 g, 80 µg/kg, intraveneously in the tail.

Compound | Acute toxicity (deaths)
desalanyl-deamino- [Asn³, Asp¹⁴, Gly²³] -h -α-CGRP | No deaths were observed
CC(C)C[C@H](NC(=O)[C@H](CCCNC(=N)N)NC(=O)[C@H](Cc1c[nH]cn1)NC(=O)[C@@H](NC(=O)[C@@H](NC(=O)[C@@H]1CSSC[C@H](NC(=O)[C@H](C)N)C(=O)N[C@@H](CC(=O)O)C(=O)N[C@@H]([C@@H](C)O)C(=O)N[C@@H](C)C(=O)N[C@@H]([C@@H](C)O)C(=O)N1)C(C)C)[C@@H](C)O)C(=O)N[C@@H](C)C(=O)N[C@@H](CCC(=O)O)C(=O)N[C@@H](CC(C)C)C(=O)N[C@@H](CC(C)C)C(=O)N[C@@H](CO)C(=O)N[C@@H](CCCNC(=N)N)C(=O)N[C@@H](CO)C(=O)NCC(=O)NCC(=O)N[C@H](C(=O)N[C@H](C(=O)N[C@@H](CCCCN)C(=O)N[C@@H](CC(N)=O)C(=O)N[C@@H](CC(N)=O)C(=O)N[C@@H](Cc1ccccc1)C(=O)N[C@H](C(=O)N1CCC[C@H]1C(=O)N[C@H](C(=O)N[C@@H](CC(N)=O)C(=O)N[C@H](C(=O)NCC(=O)N[C@@H](CO)C(=O)N[C@@H](CCCCN)C(=O)N[C@@H](C)C(=O)N[C@@H](Cc1ccccc1)C(N)=O)C(C)C)[C@@H](C)O)C(C)C)C(C)C)C(C)C [[Glu¹⁴ ] -h -α-CGRP] (H-ACDTATCVTHRLAELLSRSGGVVKNNFVPTNVGSKAF-NH2; disulfide 2-7) | No deaths were observed
CC(C)C[C@H](NC(=O)[C@H](CCCNC(=N)N)NC(=O)[C@H](Cc1c[nH]cn1)NC(=O)[C@@H](NC(=O)[C@@H](NC(=O)[C@@H]1CSSC[C@H](NC(=O)[C@H](C)N)C(=O)N[C@@H](CC(N)=O)C(=O)N[C@@H]([C@@H](C)O)C(=O)N[C@@H](C)C(=O)N[C@@H]([C@@H](C)O)C(=O)N1)C(C)C)[C@@H](C)O)C(=O)N[C@@H](C)C(=O)NCC(=O)N[C@@H](Cc1ccccc1)C(=O)N[C@@H](CC(C)C)C(=O)N[C@@H](CO)C(=O)N[C@@H](CCCNC(=N)N)C(=O)N[C@@H](CO)C(=O)NCC(=O)NCC(=O)N[C@H](C(=O)NCC(=O)N[C@@H](CCCCN)C(=O)N[C@@H](CC(N)=O)C(=O)N[C@@H](CC(N)=O)C(=O)N[C@@H](Cc1ccccc1)C(=O)N[C@H](C(=O)N1CCC[C@H]1C(=O)N[C@H](C(=O)N[C@@H](CC(N)=O)C(=O)N[C@H](C(=O)NCC(=O)N[C@@H](CO)C(=O)N[C@@H](CCCCN)C(=O)N[C@@H](C)C(=O)N[C@@H](Cc1ccccc1)C(N)=O)C(C)C)[C@@H](C)O)C(C)C)C(C)C [[Asn³, Phe¹⁵, Gly²³] -h -α-CGRP] (H-ACNTATCVTHRLAGFLSRSGGVGKNNFVPTNVGSKAF-NH2; disulfide 2-7) | No deaths were observed
desalanyl-deamino- [Asn³, Asp¹⁴, Phe¹⁵] -h -α-CGRP | No deaths were observed
h - β- CGRP | No deaths were observed
desalanyl- [Asu^2,7] -h - α-CGRP | No deaths were observed
desalanyl- [Asu^2,⁷] - c-CGRP | No deaths were observed
r - β- CGRP | No deaths were observed
desalanyl-deamino-h-α-CGRP | No deaths were observed
desalanyl-deamino- [Asn³, Glu¹⁴, Gly²³] -h -α-CGRP | No deaths were observed
CC(C)C[C@H](NC(=O)[C@H](CCCNC(=N)N)NC(=O)[C@H](Cc1c[nH]cn1)NC(=O)[C@@H](NC(=O)[C@@H](NC(=O)[C@@H]1CSSC[C@H](NC(=O)[C@H](C)N)C(=O)N[C@@H](CC(N)=O)C(=O)N[C@@H]([C@@H](C)O)C(=O)N[C@@H](C)C(=O)N[C@@H]([C@@H](C)O)C(=O)N1)C(C)C)[C@@H](C)O)C(=O)N[C@@H](C)C(=O)N[C@@H](CC(=O)O)C(=O)N[C@@H](CC(C)C)C(=O)N[C@@H](CC(C)C)C(=O)N[C@@H](CO)C(=O)N[C@@H](CCCNC(=N)N)C(=O)N[C@@H](CO)C(=O)NCC(=O)NCC(=O)N[C@H](C(=O)NCC(=O)N[C@@H](CCCCN)C(=O)N[C@@H](CC(N)=O)C(=O)N[C@@H](CC(N)=O)C(=O)N[C@@H](Cc1ccccc1)C(=O)N[C@H](C(=O)N1CCC[C@H]1C(=O)N[C@H](C(=O)N[C@@H](CC(N)=O)C(=O)N[C@H](C(=O)NCC(=O)N[C@@H](CO)C(=O)N[C@@H](CCCCN)C(=O)N[C@@H](C)C(=O)N[C@@H](Cc1ccccc1)C(N)=O)C(C)C)[C@@H](C)O)C(C)C)C(C)C [[Asn³, Asp¹⁴, Gly²³] -h -α-CGRP] (H-ACNTATCVTHRLADLLSRSGGVGKNNFVPTNVGSKAF-NH2; disulfide 2-7) | No deaths were observed
desalanyl-deamino- [Asn³, Phe¹⁵, Gly²³] -h -α-CGRP | No deaths were observed
CC(C)C[C@H](NC(=O)CNC(=O)[C@H](C)NC(=O)[C@H](CC(C)C)NC(=O)[C@H](CCCNC(=N)N)NC(=O)[C@H](Cc1cnc[nH]1)NC(=O)[C@@H](NC(=O)[C@@H](NC(=O)[C@@H]1CSSC[C@H](NC(=O)[C@H](C)N)C(=O)N[C@@H](CC(=O)O)C(=O)N[C@@H]([C@@H](C)O)C(=O)N[C@@H](C)C(=O)N[C@@H]([C@@H](C)O)C(=O)N1)C(C)C)[C@@H](C)O)C(=O)N[C@@H](CC(C)C)C(=O)N[C@@H](CO)C(=O)N[C@@H](CCCNC(=N)N)C(=O)N[C@@H](CO)C(=O)NCC(=O)NCC(=O)N[C@H](C(=O)N[C@H](C(=O)N[C@@H](CCCCN)C(=O)N[C@@H](CC(N)=O)C(=O)N[C@@H](CC(N)=O)C(=O)N[C@@H](Cc1ccccc1)C(=O)N[C@H](C(=O)N1CCC[C@H]1C(=O)N[C@H](C(=O)N[C@@H](CC(N)=O)C(=O)N[C@H](C(=O)NCC(=O)N[C@@H](CO)C(=O)N[C@@H](CCCCN)C(=O)N[C@@H](C)C(=O)N[C@@H](Cc1ccccc1)C(N)=O)C(C)C)[C@@H](C)O)C(C)C)C(C)C)C(C)C [h - α - CGRP] | No deaths were observed
c - CGRP | No deaths were observed
CC(C)C[C@H](NC(=O)[C@H](CCCNC(=N)N)NC(=O)[C@H](Cc1c[nH]cn1)NC(=O)[C@@H](NC(=O)[C@@H](NC(=O)[C@@H]1CSSC[C@H](NC(=O)[C@H](C)N)C(=O)N[C@@H](CC(N)=O)C(=O)N[C@@H]([C@@H](C)O)C(=O)N[C@@H](C)C(=O)N[C@@H]([C@@H](C)O)C(=O)N1)C(C)C)[C@@H](C)O)C(=O)N[C@@H](C)C(=O)N[C@@H](CCC(=O)O)C(=O)N[C@@H](CC(C)C)C(=O)N[C@@H](CC(C)C)C(=O)N[C@@H](CO)C(=O)N[C@@H](CCCNC(=N)N)C(=O)N[C@@H](CO)C(=O)NCC(=O)NCC(=O)N[C@H](C(=O)NCC(=O)N[C@@H](CCCCN)C(=O)N[C@@H](CC(N)=O)C(=O)N[C@@H](CC(N)=O)C(=O)N[C@@H](Cc1ccccc1)C(=O)N[C@H](C(=O)N1CCC[C@H]1C(=O)N[C@H](C(=O)N[C@@H](CC(N)=O)C(=O)N[C@H](C(=O)NCC(=O)N[C@@H](CO)C(=O)N[C@@H](CCCCN)C(=O)N[C@@H](C)C(=O)N[C@@H](Cc1ccccc1)C(N)=O)C(C)C)[C@@H](C)O)C(C)C)C(C)C [[Asn³, Glu¹⁴, Gly²³] -h -α-CGRP] (H-ACNTATCVTHRLAELLSRSGGVGKNNFVPTNVGSKAF-NH2; disulfide 2-7) | No deaths were observed
desalanyl-deamino- [Asp¹⁴ ] -h -α-CGRP | No deaths were observed
desalanyl- [Asu^2,7] -h -β-CGRP | No deaths were observed
p - CGRP | No deaths were observed
r - α - CGRP | No deaths were observed
desalanyl-deamino-h-β-CGRP | No deaths were observed
desalanyl-deamino- [Glu¹⁴ ] -h -α-CGRP | No deaths were observed
CC(C)C[C@H](NC(=O)[C@H](CCCNC(=N)N)NC(=O)[C@H](Cc1c[nH]cn1)NC(=O)[C@@H](NC(=O)[C@@H](NC(=O)[C@@H]1CSSC[C@H](NC(=O)[C@H](C)N)C(=O)N[C@@H](CC(=O)O)C(=O)N[C@@H]([C@@H](C)O)C(=O)N[C@@H](C)C(=O)N[C@@H]([C@@H](C)O)C(=O)N1)C(C)C)[C@@H](C)O)C(=O)N[C@@H](C)C(=O)N[C@@H](CC(=O)O)C(=O)N[C@@H](CC(C)C)C(=O)N[C@@H](CC(C)C)C(=O)N[C@@H](CO)C(=O)N[C@@H](CCCNC(=N)N)C(=O)N[C@@H](CO)C(=O)NCC(=O)NCC(=O)N[C@H](C(=O)N[C@H](C(=O)N[C@@H](CCCCN)C(=O)N[C@@H](CC(N)=O)C(=O)N[C@@H](CC(N)=O)C(=O)N[C@@H](Cc1ccccc1)C(=O)N[C@H](C(=O)N1CCC[C@H]1C(=O)N[C@H](C(=O)N[C@@H](CC(N)=O)C(=O)N[C@H](C(=O)NCC(=O)N[C@@H](CO)C(=O)N[C@@H](CCCCN)C(=O)N[C@@H](C)C(=O)N[C@@H](Cc1ccccc1)C(N)=O)C(C)C)[C@@H](C)O)C(C)C)C(C)C)C(C)C [[Asp¹⁴ ] -h -α-CGRP] (H-ACDTATCVTHRLADLLSRSGGVVKNNFVPTNVGSKAF-NH2; disulfide 2-7) | No deaths were observed
CC(C)C[C@H](NC(=O)[C@H](CCCNC(=N)N)NC(=O)[C@H](Cc1c[nH]cn1)NC(=O)[C@@H](NC(=O)[C@@H](NC(=O)[C@@H]1CSSC[C@H](NC(=O)[C@H](C)N)C(=O)N[C@@H](CC(N)=O)C(=O)N[C@@H]([C@@H](C)O)C(=O)N[C@@H](C)C(=O)N[C@@H]([C@@H](C)O)C(=O)N1)C(C)C)[C@@H](C)O)C(=O)N[C@@H](C)C(=O)N[C@@H](CC(=O)O)C(=O)N[C@@H](Cc1ccccc1)C(=O)N[C@@H](CC(C)C)C(=O)N[C@@H](CO)C(=O)N[C@@H](CCCNC(=N)N)C(=O)N[C@@H](CO)C(=O)NCC(=O)NCC(=O)N[C@H](C(=O)N[C@H](C(=O)N[C@@H](CCCCN)C(=O)N[C@@H](CC(N)=O)C(=O)N[C@@H](CC(N)=O)C(=O)N[C@@H](Cc1ccccc1)C(=O)N[C@H](C(=O)N1CCC[C@H]1C(=O)N[C@H](C(=O)N[C@@H](CC(N)=O)C(=O)N[C@H](C(=O)NCC(=O)N[C@@H](CO)C(=O)N[C@@H](CCCCN)C(=O)N[C@@H](C)C(=O)N[C@@H](Cc1ccccc1)C(N)=O)C(C)C)[C@@H](C)O)C(C)C)C(C)C)C(C)C [[Asn³, Asp¹⁴, Phe¹⁵] -h -α-CGRP] (H-ACNTATCVTHRLADFLSRSGGVVKNNFVPTNVGSKAF-NH2; disulfide 2-7) | No deaths were observed
desalanyl-deamino- [Asn³, Glu¹⁴, Phe¹⁵] -h -α-CGRP | No deaths were observed
desalanyl- [Asp^3, Asu^2,⁷)-c-CGRP | No deaths were observed
